According to patent US20210361600A1, “METHODS FOR INDUCING CHONDROGENESIS” (THE SCRIPPS RESEARCH INSTITUTE, priority 2017, published 2021):

Assays:
in vivo = assay: in vivo; parameters: species or system Crl:CD(SD) rat; settings: rat; for half-life: t1/2
CBFβ = CBFβ nuclear localization in hMSCs (Western blotting); assay type: cell-based, human; settings: hMSCs, 1, 10 and 100 nM, 1 hour
Procedure: Primary human MSCs were obtained from Cell Applications. The hMSCs were grown in Mesenchymal Stem Cell expansion media and used between passage 2 and 8 for all experiments. Nuclear cell lysate fractionation and western blotting
The cells were scraped off the dishes mechanically, and pipetted gently to break the cell debris. The cell lysate was centrifuged at 2000 rpm at 4° C. for 5 min and the supernatant was saved as the cytosolic fraction. The pellet was washed with washing buffer (20 mM HEPES, pH 7.9, 20% glycerol, 0.2 mM EDTA, 1 mM DTT and protease inhibitor cocktail) once and centrifuged at 2000 rpm for 5 min. The supernatant was discarded, the pellets were suspended in nuclear extraction buffer (2 mM HEPES, pH7.9, 400 mM NaCl, 20% glycerol, 0.2 mM EDTA, 1 mM DTT and protease inhibitor cocktail) and then incubated on ice for 45 min. The mixture was centrifuged at 13,000 rpm for 15 min at 4° C., and the supernatant was saved as nuclear fraction.
Proteins were resolved using SDS-PAGE gel electrophoresis, transferred to a PVDF membrane using semi-dry blotting cell. The membrane was blocked in blocking buffer (LiCor) for 1 hr at room temperature, followed by incubation with primary antibody in blocking buffer at 4° C. overnight. […]

[1] = tested on: Rat Medial Meniscal Tear Model; assay: Effect of dose frequency of compound A in a rat medial meniscal tear model; assay type: in vivo, Lewis rats
Procedure: The vehicle was prepared separately, then added to aliquots of compound A powder, and the mixture was then vortexed until it becomes a clear solution. Dosing solutions were prepared for doses of 3.5 and 0.35 μg/kg (100 μM and 10 μM respectively). Dosing volume was set to 30 μL/knee. Dosing solutions were prepared fresh weekly.
Fourteen-week-old male Lewis rats (Charles River, Kingston, N.Y.) were in the weight range of 300-320 g at the start of the study
Rats were sorted based on body weight into 8 study groups of 15 rats. They were surgerized and enrolled in a staggered fashion across one week (20 animals per day for 6 days). Briefly, animals were anesthetized with a ketamine/xylazine cocktail (50 mg/kg Ketaved—Henry Schein, and 5 mg/kg Xyalzine—AniSed respectively) by intraperitoneal injection, administered appropriate analgesics (Flunixin, 5 mg/kg subcutaneous injection), and the surgical site shaved and disinfected. A small incision was made on the medial right hind knee to expose the collateral ligament. The collateral ligament was transected and the joint capsule opened sufficiently to expose the medial meniscus. The meniscus was transected completely, then the skin incision was closed, and pressure applied to the wound to prevent hematoma development. Animals were allowed to recover on a heated blanket and were returned to their home cage. Sham procedures were carried out in a similar fashion, except the medial meniscus was not cut. All surgical procedures were performed aseptically and all procedures were approved by the institute IACUC. Animals were monitored daily for the following week for postoperative care prior to dosing. Any animals with atypical healing (bruising/hematoma) were removed from the study and replaced with spare animals.
Animals were weighed weekly at the time of dosing (8-10 am), and a standardized dose of 30 μl of either vehicle or compound was administered via injection into the intra-articular space according to the regimens outlined above (groups A, B, E and H dosed once weekly, groups C and F dosed every other week, and groups D and G dosed once for the duration of the study). Animals were dosed using a Hamilton syringe with a 27 G needle attached. On study day 28, animals were euthanized, a terminal blood sample collected, and knees were harvested and placed in formalin jars for histology analysis and pathology scoring.
Analysis of the knee joint histology was performed by Bolder BioPATH. A variety of measurements to characterize the lesions were performed to score the joints based on lesion depth, severity, and overall size.

[2] = Intra-articular acute toxicity study in the Beagle dog (toxicokinetics); settings: for Tlast / AUC(0-t) / Cmax: male dogs, plasma
[3] = female, Crl:CD(SD), iv, 0.25 mg/kg
[4] = female, Crl:CD(SD), iv, 0.75 mg/kg
[5] = female, Crl:CD(SD), iv, 2.5 mg/kg
[6] = male, Crl:CD(SD), iv, 0.25 mg/kg
[7] = male, Crl:CD(SD), iv, 0.75 mg/kg
[8] = male, Crl:CD(SD), iv, 2.5 mg/kg
[9] = dose increment of 2.9 fold (from 35 to 100 ng)
[10] = single IA 35 μg/knee, individual animals 41M, 42M
[11] = single IA 100 μg/knee, individual animals 43M, 44M
[12] = single IA 200 μg/knee, individual animals 45M, 46M

Question: What does the source list for `COCCc1ccc(NC(=O)c2ccccc2NS(C)(=O)=O)cc1` [Compound A, N-(4-(2-methoxyethyl)phenyl)-2-(methylsulfonamido)benzamide]?
Answer: time up to which quantifiable in the plasma of all animals (in vivo; both, Crl:CD(SD), iv): at least 4 hours; AUC(0-t) (in vivo; [3]): 764 ng·h/mL; Cmax (in vivo; [3]): 1380 ng/mL; t1/2 (in vivo; [3]): 32.4 min; AUC(0-t) (in vivo; female, Crl:CD(SD), iv, 0.25 mg/kg, AUC0-t): 871 ng·h/mL; Cmax (in vivo; female, Crl:CD(SD), iv, 0.25 mg/kg, Cmax): 1230 ng/mL; half-life (in vivo; [3]): 34.8 min; AUC(0-t) (in vivo; [4]): 1920 ng·h/mL; Cmax (in vivo; [4]): 4800 ng/mL; t1/2 (in vivo; [4]): 28.8 min; AUC(0-t) (in vivo; female, Crl:CD(SD), iv, 0.75 mg/kg, AUC0-t): 2250 ng·h/mL; Cmax (in vivo; female, Crl:CD(SD), iv, 0.75 mg/kg, Cmax): 3490 ng/mL; half-life (in vivo; [4]): 35.4 min; t1/2 (in vivo; [5]): 43.8 min; half-life (in vivo; [5]): 37.8 min; AUC(0-t) (in vivo; [6]): 633 ng·h/mL; Cmax (in vivo; [6]): 2060 ng/mL; t1/2 (in vivo; [6]): 25.2 min; AUC(0-t) (in vivo; male, Crl:CD(SD), iv, 0.25 mg/kg, AUC0-t): 657 ng·h/mL; Cmax (in vivo; male, Crl:CD(SD), iv, 0.25 mg/kg, Cmax): 1940 ng/mL; half-life (in vivo; [6]): 23.4 min; AUC(0-t) (in vivo; [7]): 2160 ng·h/mL; t1/2 (in vivo; [7]): 25.8 min; AUC(0-t) (in vivo; male, Crl:CD(SD), iv, 0.75 mg/kg, AUC0-t): 3120 ng·h/mL; half-life (in vivo; [7]): 37.8 min; t1/2 (in vivo; [8]): 42.6 min; half-life (in vivo; [8]): 38.4 min; gender differences in mean Cmax and mean AUC0-t (in vivo): no significant gender differences; differences in systemic exposure following single and repeated IV administration (in vivo; iv): no significant; CBFβ levels in the nuclear fraction (CBFβ): increase; combined cartilage degeneration widths with scores from mild to severe ([1]; 10 μM (0.105 μg/knee) IA once every other week, vs vehicle): statistically significant improvement; substantial cartilage degeneration width ([1]; 10 μM (0.105 μg/knee) IA once weekly or once every other week, vs vehicle): improvement; mild-to-severe degeneration widths ([1]; 10 μM (0.105 μg/knee) IA weekly): trend towards a reduction; adverse effects ([1]; IA, any dosing schedule (once weekly, once every other week, once per study), 100 μM or 10 μM): no adverse effects; progression of cartilage degeneration ([1]; dosing once every four weeks): did not demonstrate an effect; width of cartilage lesions where greater than 10% of the cartilage is damaged or lost ([1]; dosing once every other week): significant reduction; most severe cartilage lesions ([1]; not statistically significant): trend towards an improvement; concentrations in synovial fluid samples ([2]; at study termination, below the LLQ): < 0.5 ng/mL; increase in mean AUC0-t [2, 9]: 0.7 fold; increase in mean Cmax [2, 9]: 0.7 fold; increase in mean AUC0-t ([2]; dose increment of 5.7 fold): approximately 1.5 fold; increase in mean Cmax ([2]; dose increment of 5.7 fold): approximately 1.5 fold; Tlast ([2]; single IA 35 μg/knee, Mean): 4.00 h; AUC(0-t) [2, 10]: 5.41 ng·h/mL; Cmax [2, 10]: 2.21 ng/mL; Tlast [2, 10]: 4.00 h; Tlast ([2]; single IA 100 μg/knee, Mean): 4.00 h; AUC(0-t) [2, 11]: 11.7 ng·h/mL; Cmax [2, 11]: 4.75 ng/mL; Tlast [2, 11]: 4.00 h; Tlast ([2]; single IA 200 μg/knee, Mean): 4.00 h; AUC(0-t) [2, 12]: 9.60 ng·h/mL; Cmax [2, 12]: 3.21 ng/mL; Tlast [2, 12]: 4.00 h; AUC(0-t) ([2]; male, beagle, dog, 35 μg/knee, AUC0-t, single IA 35 μg/knee, Mean): 5.31 ng·h/mL; AUC(0-t) ([2]; male, beagle, dog, 35 μg/knee, AUC0-t, single IA 35 μg/knee, individual animals 41M, 42M): 5.21 ng·h/mL; Cmax ([2]; male, beagle, dog, 35 μg/knee, Cmax, single IA 35 μg/knee, Mean): 2.17 ng/mL; Cmax ([2]; male, beagle, dog, 35 μg/knee, Cmax, single IA 35 μg/knee, individual animals 41M, 42M): 2.14 ng/mL; AUC(0-t) ([2]; male, beagle, dog, 100 μg/knee, AUC0-t, single IA 100 μg/knee, Mean): 12.3 ng·h/mL; AUC(0-t) ([2]; male, beagle, dog, 100 μg/knee, AUC0-t, single IA 100 μg/knee, individual animals 43M, 44M): 13 ng·h/mL; Cmax ([2]; male, beagle, dog, 100 μg/knee, Cmax, single IA 100 μg/knee, Mean): 4.59 ng/mL; Cmax ([2]; male, beagle, dog, 100 μg/knee, Cmax, single IA 100 μg/knee, individual animals 43M, 44M): 4.43 ng/mL; AUC(0-t) ([2]; male, beagle, dog, 200 μg/knee, AUC0-t, single IA 200 μg/knee, Mean): 8.89 ng·h/mL; AUC(0-t) ([2]; male, beagle, dog, 200 μg/knee, AUC0-t, single IA 200 μg/knee, individual animals 45M, 46M): 8.18 ng·h/mL; Cmax ([2]; male, beagle, dog, 200 μg/knee, Cmax, single IA 200 μg/knee, Mean): 3.01 ng/mL; Cmax ([2]; male, beagle, dog, 200 μg/knee, Cmax, single IA 200 μg/knee, individual animals 45M, 46M): 2.81 ng/mL
